Source: ChEMBL document CHEMBL5537193, “Multitargeting HDAC Inhibitors Containing a RAS/RAF Protein Interfering Unit” (J Med Chem, 2024)
The source made the active and inactive calls. The rule behind the calls is not given here.

How the values were obtained:
NCI-H1975 = test: cells; conditions: Homo sapiens, NCI-H1975, 72 h
Description: Cytotoxicity against human NCI-H1975 cells assessed as inhibition of cell growth incubated for 72 hrs by MTT assay

MCF7 = test: cells; conditions: Homo sapiens, MCF7, 72 h
Description: Cytotoxicity against human MCF7 cells assessed as inhibition of cell growth incubated for 72 hrs by MTT assay

A549 = test: cells; conditions: Homo sapiens, A549, 72 h
Description: Cytotoxicity against human A549 cells assessed as inhibition of cell growth incubated for 72 hrs by MTT assay

SGC-7901 = test: cells; conditions: Homo sapiens, SGC-7901, 72 h
Description: Cytotoxicity against human SGC-7901 cells assessed as inhibition of cell growth incubated for 72 hrs by MTT assay

L02 = test: cells; conditions: Homo sapiens, L02, 72 h
Description: Cytotoxicity against human L02 cells assessed as inhibition of cell growth incubated for 72 hrs by MTT assay

HepG2 = test: cells; conditions: Homo sapiens, HepG2, 72 h
Description: Cytotoxicity against human HepG2 cells assessed as inhibition of cell growth incubated for 72 hrs by MTT assay

A-431 = test: cells; conditions: Homo sapiens, A-431, 72 h
Description: Cytotoxicity against human A-431 cells assessed as inhibition of cell growth incubated for 72 hrs by MTT assay

[1] = Metabolic stability in human liver microsomes assessed as intrinsic clearance at 1 uM measured upto 40 mins by LC-MS/MS analysis; format: ADME, Microsome; conditions: read-out: CLH
PANC-1 [2] = test: Induction of apoptosis in human PANC-1 cells assessed as increase in cleaved caspase-3 expression level at 2 uM incubated for 24 hrs by Western blot analysis; format: functional, cell-based
HT-29 [3] = test: Inhibition of MAPK signaling pathway in human HT-29 cells assessed as inhibition of ERK1/2 phosphorylation at 2 uM incubated for 24 hrs by Western blot analysis; format: cell-based
HT-29 [4] = test: Effect on RAS protein expression in human HT-29 cells at 2 uM incubated for 24 hrs by Western blot analysis; format: functional, cell-based
Histone deacetylase 4 = Histone deacetylase 4 (Homo sapiens, UniProt P56524); test: Inhibition of HDAC4 (unknown origin)
[5] = Metabolic stability in mouse liver microsomes assessed as intrinsic clearance at 1 uM measured upto 40 mins by LC-MS/MS analysis; format: ADME, Microsome; conditions: read-out: CLH
K562 = test: cells; conditions: Homo sapiens, K562, 72 h
Description: Cytotoxicity against human K562 cells assessed as inhibition of cell growth incubated for 72 hrs by MTT assay

HT-29 [6] = test: Effect on alpha-tubulin expression in human HT-29 cells at 2 uM incubated for 24 hrs by Western blot analysis; format: functional, cell-based
PANC-1 [7] = test: Induction of apoptosis in human PANC-1 cells incubated for 24 hrs by flow cytometric analysis; format: functional, cell-based; conditions: dose 1-4 µM
PANC-1 [8] = test: Effect on MEK protein expression in human PANC-1 cells at 2 uM incubated for 24 hrs by Western blot analysis; format: functional, cell-based
PANC-1 [9] = test: Effect on alpha-tubulin expression in human PANC-1 cells at 2 uM incubated for 24 hrs by Western blot analysis; format: functional, cell-based
HT-29 [10] = test: cells; conditions: Homo sapiens, HT-29, 72 h
Description: Cytotoxicity against human HT-29 cells assessed as inhibition of cell growth incubated for 72 hrs by MTT assay

[11] = Metabolic stability in mouse liver microsomes assessed as half-life at 1 uM measured upto 40 mins by LC-MS/MS analysis; format: ADME, Microsome
HT-29 [12] = test: Effect on MEK protein expression in human HT-29 cells at 2 uM incubated for 24 hrs by Western blot analysis; format: functional, cell-based
PANC-1 [13] = test: Cell cycle arrest in human PANC-1 cells assessed as accumulation of cells at G2-M phase at 2 uM incubated for 24 hrs by PI/RNase staining based flow cytometric analysis; format: functional
[14] = Metabolic stability in rat liver microsomes assessed as intrinsic clearance at 1 uM measured upto 40 mins by LC-MS/MS analysis; format: ADME, Microsome; conditions: read-out: CLH
PANC-1 [15] = test: Effect on RAS protein expression in human PANC-1 cells at 2 uM incubated for 24 hrs by Western blot analysis; format: functional, cell-based
PANC-1 [16] = test: Induction of apoptosis in human PANC-1 cells assessed as increase in cleaved PARP expression level at 2 uM incubated for 24 hrs by Western blot analysis; format: functional, cell-based
PANC-1 [17] = test: Effect on ERK1/2 protein expression in human PANC-1 cells at 2 uM incubated for 24 hrs by Western blot analysis; format: functional, cell-based
PANC-1 [18] = test: Inhibition of MAPK signaling pathway in human PANC-1 cells assessed as inhibition of ERK1/2 phosphorylation at 2 uM incubated for 24 hrs by Western blot analysis; format: cell-based
PANC-1 [19] = test: cells; conditions: Homo sapiens, PANC-1, 72 h
Description: Cytotoxicity against human PANC-1 cells assessed as inhibition of cell growth incubated for 72 hrs by MTT assay

Histone deacetylase 9 = Histone deacetylase 9 (Homo sapiens, UniProt Q9UKV0); test: Inhibition of HDAC9 (unknown origin)
HT-29 [20] = test: Induction of apoptosis in human HT-29 cells assessed as apoptotic ratio at 2 uM incubated for 24 hrs by flow cytometric analysis; format: functional
HT-29 [21] = test: Inhibition of MAPK signaling pathway in human HT-29 cells assessed as inhibition of MEK phosphorylation at 2 uM incubated for 24 hrs by Western blot analysis; format: cell-based
HT-29 [22] = test: Effect on Histone H3 expression in human HT-29 cells at 2 uM incubated for 24 hrs by Western blot analysis; format: functional, cell-based
PANC-1 [23] = test: Inhibition of MAPK signaling pathway in human PANC-1 cells assessed as inhibition of C-RAF phosphorylation at Ser338 residue at 2 uM incubated for 24 hrs by Western blot analysis; format: cell-based
[24] = molecular target: Serine/threonine-protein kinase PLK1 (Homo sapiens, UniProt P53350); test: Inhibition of PLK1 (unknown origin)
PANC-1 [25] = test: Inhibition of MAPK signaling pathway in human PANC-1 cells assessed as inhibition of MEK phosphorylation at 2 uM incubated for 24 hrs by Western blot analysis; format: cell-based
HT-29 [26] = test: Induction of apoptosis in human HT-29 cells incubated for 24 hrs by flow cytometric analysis; format: functional, cell-based; conditions: dose 1-4 µM
PANC-1 [27] = test: Induction of apoptosis in human PANC-1 cells assessed as increase in Cytochrome C expression level at 2 uM incubated for 24 hrs by Western blot analysis; format: functional, cell-based
PANC-1 [28] = test: Induction of apoptosis in human PANC-1 cells assessed as apoptotic cells at 2 uM incubated for 24 hrs by flow cytometric analysis relative to control; format: functional
MV4-11 = test: cells; conditions: Homo sapiens, MV4-11, 72 h
Description: Cytotoxicity against human MV4-11 cells assessed as inhibition of cell growth incubated for 72 hrs by MTT assay

HT-29 [29] = test: Effect on ERK1/2 protein expression in human HT-29 cells at 2 uM incubated for 24 hrs by Western blot analysis; format: functional, cell-based
HT-29 [30] = test: Inhibition of MAPK signaling pathway in human HT-29 cells assessed as inhibition of C-RAF phosphorylation at Ser338 residue at 2 uM incubated for 24 hrs by Western blot analysis; format: cell-based
PANC-1 [31] = test: Induction of apoptosis in human PANC-1 cells assessed as increase in Bax expression at 2 uM incubated for 24 hrs by Western blot analysis; format: functional, cell-based
PANC-1 [32] = test: Effect on Histone H3 expression in human PANC-1 cells at 2 uM incubated for 24 hrs by Western blot analysis; format: functional, cell-based
[33] = Metabolic stability in rat liver microsomes assessed as half-life at 1 uM measured upto 40 mins by LC-MS/MS analysis; format: ADME, Microsome
HT-29 [34] = test: Cell cycle arrest in human HT-29 cells assessed as accumulation of cells at G2-M phase at 2 uM incubated for 24 hrs by PI/RNase staining based flow cytometric analysis; format: functional
PANC-1 [35] = test: Induction of apoptosis in human PANC-1 cells assessed as increase in cleaved caspase-9 expression level at 2 uM incubated for 24 hrs by Western blot analysis; format: functional, cell-based
[36] = Metabolic stability in human liver microsomes assessed as half-life at 1 uM measured upto 40 mins by LC-MS/MS analysis; format: ADME, Microsome
[37] = Metabolic stability in mouse liver microsomes assessed as half-life measured upto 40 mins by LC-MS/MS analysis; format: ADME, Microsome
[38] = Metabolic stability in rat liver microsomes assessed as half-life measured upto 40 mins by LC-MS/MS analysis; format: ADME, Microsome
[39] = Metabolic stability in human liver microsomes assessed as intrinsic clearance measured upto 40 mins by LC-MS/MS analysis; format: ADME, Microsome; conditions: read-out: CLH
[40] = Metabolic stability in human liver microsomes assessed as half-life measured upto 40 mins by LC-MS/MS analysis; format: ADME, Microsome
[41] = Metabolic stability in rat liver microsomes assessed as intrinsic clearance measured upto 40 mins by LC-MS/MS analysis; format: ADME, Microsome; conditions: read-out: CLH
[42] = Metabolic stability in mouse liver microsomes assessed as intrinsic clearance measured upto 40 mins by LC-MS/MS analysis; format: ADME, Microsome; conditions: read-out: CLH

Sequence of Serine/threonine-protein kinase PLK1 (P53350 whole entry): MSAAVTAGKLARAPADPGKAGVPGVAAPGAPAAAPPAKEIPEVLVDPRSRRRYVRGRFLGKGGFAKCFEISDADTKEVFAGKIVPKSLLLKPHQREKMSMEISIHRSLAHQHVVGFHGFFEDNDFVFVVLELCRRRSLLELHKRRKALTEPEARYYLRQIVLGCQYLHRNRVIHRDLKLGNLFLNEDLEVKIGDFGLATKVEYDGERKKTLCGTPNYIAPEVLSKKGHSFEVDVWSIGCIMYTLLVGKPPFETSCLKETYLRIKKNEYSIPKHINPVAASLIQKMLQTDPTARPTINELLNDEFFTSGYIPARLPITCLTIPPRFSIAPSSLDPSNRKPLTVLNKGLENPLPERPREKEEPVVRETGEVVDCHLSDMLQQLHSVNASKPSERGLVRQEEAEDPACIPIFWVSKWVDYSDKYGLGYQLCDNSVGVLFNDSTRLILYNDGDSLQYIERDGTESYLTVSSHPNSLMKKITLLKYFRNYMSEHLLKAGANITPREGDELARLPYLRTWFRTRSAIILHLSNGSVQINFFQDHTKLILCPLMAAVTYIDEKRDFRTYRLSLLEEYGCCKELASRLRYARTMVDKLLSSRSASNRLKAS
Sequence of Histone deacetylase 4 (P56524 whole entry): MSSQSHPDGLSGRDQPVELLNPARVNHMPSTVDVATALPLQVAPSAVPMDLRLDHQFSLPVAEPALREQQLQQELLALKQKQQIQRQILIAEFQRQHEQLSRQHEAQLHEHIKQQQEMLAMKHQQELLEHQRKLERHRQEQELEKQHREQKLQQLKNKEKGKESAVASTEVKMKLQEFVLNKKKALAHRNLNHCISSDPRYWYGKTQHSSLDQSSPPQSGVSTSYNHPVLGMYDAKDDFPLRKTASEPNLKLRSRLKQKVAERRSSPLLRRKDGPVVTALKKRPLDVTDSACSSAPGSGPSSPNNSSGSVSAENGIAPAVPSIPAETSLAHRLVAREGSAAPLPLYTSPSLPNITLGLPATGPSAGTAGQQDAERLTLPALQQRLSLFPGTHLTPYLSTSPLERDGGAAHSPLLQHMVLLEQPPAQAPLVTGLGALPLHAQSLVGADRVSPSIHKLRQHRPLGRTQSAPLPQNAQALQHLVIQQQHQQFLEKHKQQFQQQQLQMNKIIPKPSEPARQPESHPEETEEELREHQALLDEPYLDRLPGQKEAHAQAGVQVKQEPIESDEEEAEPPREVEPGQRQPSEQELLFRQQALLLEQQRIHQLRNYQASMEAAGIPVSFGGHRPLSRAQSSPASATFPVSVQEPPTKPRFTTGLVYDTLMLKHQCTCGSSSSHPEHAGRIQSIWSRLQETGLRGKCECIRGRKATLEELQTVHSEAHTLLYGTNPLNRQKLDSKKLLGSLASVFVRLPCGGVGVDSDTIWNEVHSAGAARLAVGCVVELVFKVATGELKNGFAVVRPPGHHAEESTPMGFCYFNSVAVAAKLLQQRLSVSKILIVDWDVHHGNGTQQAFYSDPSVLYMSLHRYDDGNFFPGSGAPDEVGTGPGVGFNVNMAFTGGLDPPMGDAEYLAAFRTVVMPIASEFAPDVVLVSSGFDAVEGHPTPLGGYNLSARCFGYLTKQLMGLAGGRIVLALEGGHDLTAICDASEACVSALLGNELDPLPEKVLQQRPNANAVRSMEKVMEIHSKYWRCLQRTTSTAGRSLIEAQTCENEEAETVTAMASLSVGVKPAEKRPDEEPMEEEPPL
Sequence of Histone deacetylase 9 (Q9UKV0 whole entry): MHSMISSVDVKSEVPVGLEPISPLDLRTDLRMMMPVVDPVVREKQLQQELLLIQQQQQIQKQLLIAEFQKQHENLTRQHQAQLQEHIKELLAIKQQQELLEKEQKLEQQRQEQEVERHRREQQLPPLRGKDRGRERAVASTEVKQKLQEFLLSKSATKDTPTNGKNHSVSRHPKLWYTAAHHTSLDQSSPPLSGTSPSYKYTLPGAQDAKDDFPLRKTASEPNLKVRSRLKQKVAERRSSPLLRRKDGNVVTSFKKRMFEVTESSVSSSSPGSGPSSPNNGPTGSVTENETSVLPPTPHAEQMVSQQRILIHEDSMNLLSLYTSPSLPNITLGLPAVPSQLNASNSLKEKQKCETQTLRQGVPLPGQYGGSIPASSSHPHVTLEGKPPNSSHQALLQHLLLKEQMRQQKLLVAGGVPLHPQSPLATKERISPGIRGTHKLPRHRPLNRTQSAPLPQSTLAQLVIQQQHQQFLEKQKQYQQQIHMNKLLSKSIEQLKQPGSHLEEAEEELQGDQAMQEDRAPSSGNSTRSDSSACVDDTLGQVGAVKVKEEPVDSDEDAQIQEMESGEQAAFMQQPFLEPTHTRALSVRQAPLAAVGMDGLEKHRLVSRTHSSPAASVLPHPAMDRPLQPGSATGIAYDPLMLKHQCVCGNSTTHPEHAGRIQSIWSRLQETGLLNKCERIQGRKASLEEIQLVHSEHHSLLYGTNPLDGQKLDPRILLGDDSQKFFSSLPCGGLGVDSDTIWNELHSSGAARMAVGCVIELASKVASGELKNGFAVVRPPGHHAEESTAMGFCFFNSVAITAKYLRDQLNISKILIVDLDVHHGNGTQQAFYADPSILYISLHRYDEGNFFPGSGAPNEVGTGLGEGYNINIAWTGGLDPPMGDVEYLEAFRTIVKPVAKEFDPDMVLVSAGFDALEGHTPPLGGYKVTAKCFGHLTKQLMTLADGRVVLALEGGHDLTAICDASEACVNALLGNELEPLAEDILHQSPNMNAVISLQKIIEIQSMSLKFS

Structure (SMILES): COc1cc(OC)c(/C=C/S(=O)(=O)Cc2ccc(OC)c(NC(=O)CCCC(=O)NO)c2)c(OC)c1
- IC50 (NCI-H1975): 0.67 µM
- IC50 (MCF7): 3.78 µM
- IC50 (A549): 1.74 µM
- IC50 (SGC-7901): 1.87 µM
- IC50 (L02): > 40 µM
- IC50 (HepG2): 5.89 µM
- IC50 (A-431): 11.4 µM

Structure (SMILES): COc1cc(OC)c(/C=C/S(=O)(=O)Cc2ccc(OC)c(NCCCCCC(=O)NO)c2)c(OC)c1
- IC50 (NCI-H1975): 5.08 µM
- IC50 (MCF7): 7.56 µM
- IC50 (A549): 6.02 µM
- IC50 (SGC-7901): 4.92 µM
- IC50 (L02): > 40 µM
- IC50 (HepG2): 4.64 µM
- IC50 (A-431): 4.64 µM

Structure (SMILES): COc1cc(OC)c(/C=C/S(=O)(=O)Cc2ccc(OC)c(NC(=O)CCC(=O)NO)c2)c(OC)c1
- CLint scaled at 1 µM [1]: 36.2 mL/min/kg
- Activity (PANC-1 [2]): Active
- inhibition (HT-29 [3]): Active
- Activity (HT-29 [4]): inactive
- IC50 (Histone deacetylase 4): 84.1 nM
- CLint scaled at 1 µM [5]: 379 mL/min/kg
- IC50 (NCI-H1975): 0.08 µM
- IC50 (K562): 20 nM
- Activity (HT-29 [6]): inactive
- Activity (PANC-1 [7]): Dose-Dependent Effect
- IC50 (MCF7): 0.24 µM
- Activity (PANC-1 [8]): inactive
- Activity (PANC-1 [9]): inactive
- IC50 (HT-29 [10]): 120 nM
- half-life at 1 µM [11]: 14.4 min
- Activity (HT-29 [12]): inactive
- Activity (PANC-1 [13]): Active
- CLint scaled at 1 µM [14]: 70.2 mL/min/kg
- Activity (PANC-1 [15]): inactive
- Activity (PANC-1 [16]): Active
- Activity (PANC-1 [17]): inactive
- IC50 (A549): 0.21 µM
- inhibition (PANC-1 [18]): Active
- IC50 (PANC-1 [19]): 110 nM
- IC50 (SGC-7901): 0.26 µM
- IC50 (Histone deacetylase 9): 91.3 nM
- Activity (HT-29 [20]): 46.2%
- inhibition (HT-29 [21]): Active
- Activity (HT-29 [22]): inactive
- inhibition (PANC-1 [23]): Active
- IC50 (L02): > 40 µM
- IC50 [24]: 20.5 nM
- inhibition [24]: Dose-Dependent Effect
- IC50 (HepG2): 1.68 µM
- inhibition (PANC-1 [25]): Active
- Activity (HT-29 [26]): Dose-Dependent Effect
- Activity (PANC-1 [27]): Active
- Activity (PANC-1 [28]): 55.1%
- IC50 (MV4-11): 150 nM
- Activity (HT-29 [29]): inactive
- IC50 (A-431): 0.33 µM
- inhibition (HT-29 [30]): Active
- Activity (PANC-1 [31]): Active
- Activity (PANC-1 [32]): inactive
- half-life at 1 µM [33]: 35.4 min
- Activity (HT-29 [34]): Active
- Activity (PANC-1 [35]): Active
- half-life at 1 µM [36]: 48 min

Structure (SMILES): COc1cc(OC)c(/C=C/S(=O)(=O)Cc2ccc(OC)c(NCCCCCC(=O)Nc3ccccc3N)c2)c(OC)c1
- IC50 (NCI-H1975): 4.75 µM
- IC50 (MCF7): 10.5 µM
- IC50 (A549): 12.8 µM
- IC50 (SGC-7901): 8.89 µM
- IC50 (L02): > 40 µM
- IC50 (HepG2): 7.54 µM
- IC50 (A-431): 4.47 µM

Structure (SMILES): COc1cc(OC)c(/C=C/S(=O)(=O)Cc2ccc(OC)c(NC(=O)CCCCC(=O)Nc3ccccc3N)c2)c(OC)c1
- IC50 (NCI-H1975): 18.8 µM
- IC50 (MCF7): 11.7 µM
- IC50 (A549): 16.7 µM
- IC50 (SGC-7901): 17.2 µM
- IC50 (L02): > 40 µM
- IC50 (HepG2): 27.4 µM
- IC50 (A-431): 20.6 µM

Structure (SMILES): O=C(c1ccc(F)cc1)C1CCN(CCn2c(=O)[nH]c3ccccc3c2=O)CC1 [KETANSERIN]
- half-life [37]: 20.6 min
- half-life [38]: 17.6 min
- CLint scaled [39]: 47.5 mL/min/kg
- half-life [40]: 36.6 min
- CLint scaled [41]: 141 mL/min/kg
- CLint scaled [42]: 265 mL/min/kg

Structure (SMILES): COc1cc(OC)c(/C=C/S(=O)(=O)Cc2ccc(OC)c(NC(=O)CCCCC(=O)NO)c2)c(OC)c1
- IC50 (NCI-H1975): 9.48 µM
- IC50 (MCF7): 9.68 µM
- IC50 (A549): 8.56 µM
- IC50 (SGC-7901): 12.3 µM
- IC50 (L02): > 40 µM
- IC50 (HepG2): 29.1 µM
- IC50 (A-431): 18.8 µM
